Assay results reported in patent US20110092476A1, “Bicycloheteroaryl compounds as P2X7 modulators and uses thereof” (Renovis, Inc., priority 2006, published 2011).
Like-named read-outs stand apart in the source and are kept apart here.

Legend:
[1] = Pharmacokinetic evaluation following intravenous and oral administration in rats (oral bioavailability); assay type: in vivo, rat; conditions: male Sprague-Dawley rats, PO 1 to 5 mg/kg vs IV 1 mg/kg, AUCinf dose-normalized
Procedure: Male Sprague-Dawley rats are acclimatized for at least 24 hours prior to experiment initiation. During acclimation period, all animals receive food and water ad libitum. However, food but not water is removed from the animal's cages at least 12 hours before initiation of the experiment. During the first 3 hours of experimentation, the animals receive only water ad libitum. At least three animals each are tested for intravenous and oral dosage. For intravenous formulation, compounds were dissolved (0.25 to 1 mg/mL) in a mixture of 3% dimethyl sulfoxide, 40% PEG 400 and the rest percentage of 40% Captisol in water (w/v). The animals are weighed before dosing. The determined body weight is used to calculate the dose volume for each animal.
Dose volume (mL/kg)=1 mg/kg/formulation concentration (mg/mL)
In instances where the formulation concentrations were less than 0.5 mg/mL, the dosing volume is about 2 mL/kg.
PO rats are typically dosed through oral gavage following the same dose volume formula as IV to achieve a dose level of 1 to 5 mg/kg. […] About 250 uL of blood is obtained at each time point from the animal. Equal volumes of 0.9% normal saline are replaced to prevent dehydration. The whole blood samples are maintained on ice until centrifugation. Blood samples are then centrifuged at 14,000 rpm for 10 minutes at 4° C. and the upper plasma layer transferred into a clean vial and stored at −80° C. The resulting plasma samples are then analyzed by liquid chromatography-tandem mass spectrometry. Following the measurement of plasma samples and dosing solutions, plasma concentration-time curve is plotted. Plasma exposure is calculated as the area under the concentration-time curve extrapolated to time infinite (AUinf). The AUCinf is averaged and the oral bioavailability (% F) for individual animal is calculated as:
AUCinf (PO)/AUCinf (IV), normalized to their respective dose levels. The % F is reported as the mean % F of all animals dosed orally with the compound of the invention at the specified level (see Table 4 below).
For the purpose of Table 4, oral bioavailability of each compound is expressed as follows: […]

[2] = in vitro; conditions: human, microsomes, pH 7.4
Procedure: (§1) Test compounds (1 μM) are incubated with 3.3 mM MgCl2 and 0.78 mg/mL HLM (HL101) in 100 mM potassium phosphate buffer (pH 7.4) at 37° C. on the 96-deep well plate. The reaction mixture is split into two groups, a non-P450 and a P450 group. NADPH is only added to the reaction mixture of the P450 group. An aliquot of samples of P450 group is collected at 0, 10, 30, and 60 min time point, where 0 min time point indicated the time when NADPH is added into the reaction mixture of P450 group. […] Collected aliquots are extracted with acetonitrile solution containing an internal standard. […] The compound concentration in supernatant is measured by LC/MS/MS system.
(§2) The half-life value is obtained by plotting the natural logarithm of the peak area ratio of compounds/internal standard versus time. The slope of the line of best fit through the points yields the rate of metabolism (k). This is converted to a half-life value using following equations:

[3] = Determination of aqueous (kinetic) solubility; assay type: physicochemical; conditions: aqueous buffer, kinetic from dmso stock, buffer pH 7.4
Procedure: The mixture was vortexed for 1 hour and equilibrated overnight at room temperature. The mixture was filtered through a saturated filter and the filtrate was analyzed by LC/MS/MS.
For the purpose of Table 5, solubility of each compound is expressed as follows: […]

[4] = molecular target: T1, P2X7 receptor (Homo sapiens, UniProt Q99572); assay: IL-1β release assay in differentiated THP-1 cells stimulated with BzATP (Example 9); assay type: cell-based; conditions: for IC50: THP-1 cells, IL-1β by ELISA
T1 construct: host or cells: THP-1 cells differentiated with LPS and IFN-γ
T1 sequence (Q99572 1-595): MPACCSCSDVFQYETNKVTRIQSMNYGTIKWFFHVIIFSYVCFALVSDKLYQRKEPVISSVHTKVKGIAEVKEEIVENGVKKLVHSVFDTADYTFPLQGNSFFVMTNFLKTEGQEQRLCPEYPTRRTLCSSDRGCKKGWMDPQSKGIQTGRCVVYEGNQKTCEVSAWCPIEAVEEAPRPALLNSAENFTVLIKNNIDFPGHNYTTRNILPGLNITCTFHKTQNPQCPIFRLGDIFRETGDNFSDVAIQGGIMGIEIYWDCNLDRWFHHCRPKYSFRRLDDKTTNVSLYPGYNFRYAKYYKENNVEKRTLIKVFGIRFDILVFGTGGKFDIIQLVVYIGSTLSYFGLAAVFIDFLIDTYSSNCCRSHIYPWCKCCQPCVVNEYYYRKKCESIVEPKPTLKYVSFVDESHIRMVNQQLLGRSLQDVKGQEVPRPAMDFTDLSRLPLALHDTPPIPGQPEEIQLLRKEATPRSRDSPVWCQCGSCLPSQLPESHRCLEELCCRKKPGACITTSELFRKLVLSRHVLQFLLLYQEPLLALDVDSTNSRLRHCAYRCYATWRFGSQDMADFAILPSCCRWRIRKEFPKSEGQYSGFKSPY
Outline: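 THP-1 cells differentiated 16 h with 100 ng/mL LPS and 100 ng/mL IFN-γ, primed 2 h with fresh LPS, pretreated 30 min with compound, then stimulated 45 min with 250 uM BzATP (final). Supernatant IL-1β measured by ELISA; background-adjusted percent inhibition fitted to a four-parameter logistic for IC50.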

[5] = Half-life in human liver microsomes (HLM); conditions: pH 7.4
Procedure: as §1, §2

[6] = 0.3 μM compound, differentiated THP-1 cells, BzATP 250 uM, "+" symbols, read-out: IL-1β % Inhib. @ 0.3 or 0.1 uM

SMILES	Oral Bioavailability F (%) [1]	half-life [2]	solubility [3]	inhibition at 0.3 µM ([4]; THP-1, read-out: IL-1β % Inhib. @ 0.3 or 0.1 uM)	IC50 ([4]; BzATP 250 uM)	inhibition at 0.3 µM [4, 6]	half-life at 1 μM [5]
Cc1ccc2c(=O)n([C@H](C)CO)ccc2c1NC(=O)Cc1ccc(C(F)(F)F)c(F)c1 [Compound 393, N-[6-Methyl-2-((R)-2-hydroxy-1-methyl-ethyl)-1-oxo-1,2-dihydro-isoquinolin-5-yl]-2-(3-fluoro-4-trifluoromethyl-phenyl)-acetamide]	+++ (51-75% F)	1.45 h	> 75 µM	> 76%	5.38 nM	–	–
O=C(Cc1ccc(C(F)(F)F)c(F)c1)Nc1c(Cl)ccc2c(=O)n(CCO)ccc12 [Compound 383]	++++ (>75% F)	3.65 h	< 25 µM	–	–	> 76%	–
Cc1ccc2c(=O)n([C@H](C)CO)ccc2c1NC(=O)Cc1ccc(F)c(C(F)(F)F)c1 [Compound 394]	++ (26-50% F)	–	> 75 µM	–	5.54 nM	> 76%	0.7 h
